Measurements from the NIST ThermoML archive (doi:10.1021/je500239t).
Where “and” joins values, the source holds several entries; their conditions need not be identical. Equal entries are not always repeated.

Conditions: for mass density: Liquid, isochoric method; for surface tension liquid-gas: Ring tensiometer

CCCCCCCCCCCCCC[P+](CCCCCC)(CCCCCC)CCCCCC.O=S(=O)([N-]S(=O)(=O)C(F)(F)F)C(F)(F)F
Conditions	mass density [kg/m3]
219.01 K, 845.2 kPa	1126.5
225.43 K, 10086 kPa	1125.99
225.43 K, 30200 kPa	1132.83
232.16 K, 19479 kPa	1125.46
233.47 K, 2869.4 kPa	1117.39
239.5 K, 10003 kPa	1116.86
239.51 K, 29986 kPa	1124.87
246.7 K, 20172 kPa	1116.37
247.35 K, 40212 kPa	1124.27
247.71 K, 1577.7 kPa	1107.13
254.34 K, 29850 kPa	1115.68
254.34 K, 29998 kPa	1115.78
254.36 K, 9848.1 kPa	1106.63
255.79 K, 51007 kPa	1123.62
262.3 K, 20026 kPa	1106.02
262.46 K, 40028 kPa	1115.06
263.55 K, 901 kPa	1095.02
268.29 K, 100 kPa	1090.79
270.61 K, 30010 kPa	1105.4
270.69 K, 9770.1 kPa	1094.49
270.95 K, 49862 kPa	1114.43
273.26 K, 100 kPa	1087.18
278.4 K, 100 kPa	1083.71
279.46 K, 39911 kPa	1104.75
280.16 K, 20417 kPa	1093.79
281.02 K, 1048.9 kPa	1082.63
283.3 K, 100 kPa	1079.84
288.55 K, 100 kPa	1076.14
288.56 K, 49907 kPa	1104.08
288.91 K, 10149 kPa	1082.04
288.92 K, 30030 kPa	1093.15
292.93 K, 100 kPa	1072.95
298 K, 39766 kPa	1092.49
298.17 K, 191.9 kPa	1068.8
298.17 K, 19640 kPa	1081.39
298.19 K, 100 kPa	1068.54
299.08 K, 1497.9 kPa	1069.18
303.24 K, 100 kPa	1065.2
307.5 K, 49581 kPa	1091.81
307.85 K, 10007 kPa	1068.57
308.01 K, 100 kPa	1061.72
308.08 K, 30024 kPa	1080.67
309.27 K, 1043.1 kPa	1061.06
313.17 K, 100 kPa	1057.68
318.03 K, 39710 kPa	1079.97
318.05 K, 100 kPa	1054.69
318.08 K, 19797 kPa	1067.86
318.16 K, 9063.9 kPa	1060.46
318.96 K, 1508.5 kPa	1054.33
323.08 K, 100 kPa	1051.01
328.31 K, 100 kPa	1047.34
328.73 K, 10024 kPa	1053.67
328.99 K, 49945 kPa	1079.21
329.13 K, 30007 kPa	1067.09
329.82 K, 733.9 kPa	1046.15
329.83 K, 19983 kPa	1059.65
333.03 K, 100 kPa	1044.1
338.51 K, 100 kPa	1040.38
339.97 K, 40003 kPa	1066.34
340.03 K, 20057 kPa	1052.9
340.84 K, 1346 kPa	1038.9
340.84 K, 10036 kPa	1045.42
341.21 K, 30097 kPa	1058.87
342.84 K, 100 kPa	1037.08
348.34 K, 100 kPa	1033.83
350.84 K, 50030 kPa	1065.58
353.13 K, 100 kPa	1030.2
353.15 K, 20345 kPa	1044.59
353.15 K, 31348 kPa	1052.01
353.15 K, 40207 kPa	1058.06
353.16 K, 11244 kPa	1038.09
358.18 K, 100 kPa	1026.93
364.28 K, 100 kPa	1022.11

Conditions	surface tension liquid-gas
273.49 K	31.49 mN/m
273.52 K	31.51 mN/m
278.33 K	31.18 mN/m
278.52 K	31.21 mN/m
283.37 K	30.85 mN/m
283.39 K	30.94 mN/m
288.38 K	30.66 mN/m
288.5 K	30.56 mN/m
293.37 K	30.35 mN/m
298.24 K	30.13 mN/m
298.25 K	30.11 mN/m
303.15 K	29.82 mN/m
303.17 K	29.89 mN/m
308.18 K	29.56 mN/m
308.21 K	29.37 mN/m
313.21 K	29.15 mN/m
313.22 K	29.24 mN/m
318.2 K	29.03 mN/m
318.23 K	28.86 mN/m
323.19 K	28.56 mN/m
323.28 K	28.54 mN/m
328.11 K	28.34 mN/m
328.28 K	27.99 mN/m
333.15 K	27.89 mN/m and 27.98 mN/m
338.1 K	27.59 mN/m
338.13 K	27.94 mN/m
343 K	27.46 mN/m
343.05 K	27.3 mN/m
348 K	27.14 mN/m
348.34 K	26.92 mN/m
353.32 K	26.56 mN/m
353.33 K	26.79 mN/m
358.1 K	26.38 mN/m
358.49 K	26.45 mN/m
364.76 K	26.01 mN/m
364.97 K	25.93 mN/m
